According to PubChem BioAssay AID330 (DTP/NCI, 2004):
“And” between values parts separate entries of the source, which are not always exact repeats. Equal entries are not always repeated. Toxic doses and inconclusive results are not listed. The calls were made as follows: active = survival T/C of 150% or more; inactive = T/C below 125% in these data.

Tested on: P388 leukemia ip, CD2F1 mice, survival T/C
Assay: NCI In Vivo Anticancer Drug Screen. Data for tumor model P388 Leukemia (intraperitoneal) in CD2F1 (CDF1) mice
Details: endpoint: median survival time, higher = longer survival
Outline: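 Mice carrying the transplanted tumor received test compound or vehicle. Survival was recorded in each group, and the value is the treated-group measurement divided by that of the vehicle-treated control group.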

[1] = dose: 120.0 mg/kg/injection, schedule: Q01DX005 (ip), vehicle: Klucel (hydroxypropylcellulose) (HPC)
[2] = dose: 240.0 mg/kg/injection, schedule: Q01DX005 (ip), vehicle: Klucel (hydroxypropylcellulose) (HPC)
[3] = dose: 50.0 mg/kg/injection, schedule: Q01DX009 (ip), vehicle: Klucel (hydroxypropylcellulose) (HPC)
[4] = dose: 100.0 mg/kg/injection, schedule: Q01DX009 (ip), vehicle: Klucel (hydroxypropylcellulose) (HPC)
[5] = dose: 200.0 mg/kg/injection, schedule: Q01DX009 (ip), vehicle: Klucel (hydroxypropylcellulose) (HPC)
[6] = dose: 50.0 mg/kg/injection, schedule: Q01DX009 (ip), vehicle: saline with Tween-80
[7] = dose: 100.0 mg/kg/injection, schedule: Q01DX009 (ip), vehicle: saline with Tween-80
[8] = dose: 200.0 mg/kg/injection, schedule: Q01DX009 (ip), vehicle: saline with Tween-80

Measured: T/C

COc1ccc(-n2c(SCC(=O)NC(=O)Nc3ccccc3)nc3c(Br)cc(Br)cc3c2=O)cc1
inactive: dose: 7.5 mg/kg/injection, schedule: Q01DX005 (ip), vehicle: Klucel (hydroxypropylcellulose) (HPC) 97 % of control | dose: 15.0 mg/kg/injection, schedule: Q01DX005 (ip), vehicle: Klucel (hydroxypropylcellulose) (HPC) 92 % of control | dose: 30.0 mg/kg/injection, schedule: Q01DX005 (ip), vehicle: Klucel (hydroxypropylcellulose) (HPC) 86 % of control and 94 % of control | [1] 90 % of control | [2] 101 % of control

COc1ccccc1N1C(=O)C(=O)C(C(C)=O)C1=O (stereo not drawn)
inactive: [3] 107 % of control | [4] 106 % of control | [5] 108 % of control

CC1=C[C@H]2[C@@]3(O)[C@H](C)[C@@H](OC(=O)/C=C\c4ccccc4)[C@]4(OC(=O)/C=C\c5ccccc5)[C@H]([C@@H]3C=C(COC(=O)/C=C\c3ccccc3)C[C@]2(O)C1=O)C4(C)C
inactive: dose: 0.18 mg/kg/injection, schedule: Q01DX005 (ip), vehicle: saline + alcohol 92 % of control | dose: 0.35 mg/kg/injection, schedule: Q01DX005 (ip), vehicle: saline + alcohol 95 % of control | dose: 0.7 mg/kg/injection, schedule: Q01DX005 (ip), vehicle: saline + alcohol 95 % of control | dose: 1.4 mg/kg/injection, schedule: Q01DX005 (ip), vehicle: saline + alcohol 95 % of control | dose: 2.8 mg/kg/injection, schedule: Q01DX005 (ip), vehicle: saline + alcohol 102 % of control

Cc1c(Cl)cnc(N)c1Cl (tested in a mixture with another compound)
inactive: dose: 25.0 mg/kg/injection, schedule: Q01DX009 (ip), vehicle: saline with Tween-80 93 % of control | [6] 90 % of control | [7] 93 % of control | [8] 95 % of control

COC1CC(N)C(OS(C)(=O)=O)C(C)O1 (stereo not drawn)
inactive: dose: 12.5 mg/kg/injection, schedule: Q04DX003 (ip), vehicle: water 99 % of control | dose: 25.0 mg/kg/injection, schedule: Q04DX003 (ip), vehicle: water 99 % of control | dose: 50.0 mg/kg/injection, schedule: Q04DX003 (ip), vehicle: water 114 % of control | dose: 100.0 mg/kg/injection, schedule: Q04DX003 (ip), vehicle: water 114 % of control | dose: 200.0 mg/kg/injection, schedule: Q04DX003 (ip), vehicle: water 105 % of control

Cc1cc2c(c3ncccc13)OCN(Cc1ccc(Cl)cc1)C2
inactive: [6] 94 % of control | [7] 95 % of control | [8] 94 % of control

Nc1[nH]c(=O)[nH]c(=O)c1N=O
inactive: dose: 60.0 mg/kg/injection, schedule: Q01DX005 (ip), vehicle: Klucel (hydroxypropylcellulose) (HPC) 101 % of control and 96 % of control | [1] 101 % of control and 108 % of control | [2] 104 % of control and 98 % of control

CC(C)[S][Pb]([c]1ccccc1)([c]1ccccc1)[c]1ccccc1
inactive: dose: 1.25 mg/kg/injection, schedule: Q01DX009 (ip), vehicle: gum acacia 116 % of control | dose: 2.5 mg/kg/injection, schedule: Q01DX009 (ip), vehicle: gum acacia 118 % of control | dose: 5.0 mg/kg/injection, schedule: Q01DX009 (ip), vehicle: gum acacia 111 % of control | dose: 6.25 mg/kg/injection, schedule: Q04DX003 (ip), vehicle: gum acacia 97 % of control | dose: 12.5 mg/kg/injection, schedule: Q04DX003 (ip), vehicle: gum acacia 104 % of control

CCCCCCOC(=O)c1ccc(OC)cc1
inactive: [6] 104 % of control | [7] 106 % of control | [8] 108 % of control

O=[N+]([O-])c1ccccc1N=Nc1c(-c2ccccc2)nn(C(=S)N2CCOCC2)c1-c1ccccc1
inactive: dose: 1.5 mg/kg/injection, schedule: Q01DX005 (ip), vehicle: saline with Tween-80 102 % of control | dose: 3.0 mg/kg/injection, schedule: Q01DX005 (ip), vehicle: saline with Tween-80 96 % of control | dose: 6.0 mg/kg/injection, schedule: Q01DX005 (ip), vehicle: saline with Tween-80 87 % of control | dose: 6.25 mg/kg/injection, schedule: Q01DX005 (ip), vehicle: saline with Tween-80 92 % of control | dose: 100.0 mg/kg/injection, schedule: Q01DX005 (ip), vehicle: saline with Tween-80 86 % of control | dose: 200.0 mg/kg/injection, schedule: Q01DX005 (ip), vehicle: saline with Tween-80 95 % of control

COc1ccccc1N=c1scc(C)n1C
inactive: [3] 111 % of control | [4] 109 % of control | [5] 118 % of control

Cn1c(-c2ccccc2)c2c(c1-c1ccccc1)C(=O)c1ccccc1C2=O
inactive: [3] 95 % of control | [4] 101 % of control | [5] 100 % of control
